Assay: Solubility of Mesotrione in solvents
Assay type: physicochemical
Text: Mesotrione has been introduced in both Rhodiasolv® Li-Tec 2v and Rhodiasolv® Polarclean. Mesotrione is not soluble in Rhodiasolv® Li-Tec 2v and is soluble in (for instance at concentration of 30 g/L) Rhodiasolv® Polarclean.

Compound: CS(=O)(=O)c1ccc(C(=O)C2C(=O)CCCC2=O)c([N+](=O)[O-])c1 [Mesotrione, 2-(4-methylsulfonyl-2-nitrobenzoyl)-cyclohexane-1,3-dione]
- Solubility in Rhodiasolv® Li-Tec 2v (solvent Rhodiasolv® Li-Tec 2v): not soluble
- Solubility in Rhodiasolv® Polarclean (solvent Rhodiasolv® Polarclean, for instance at concentration of 30 g/L): soluble

Reference: patent US12484579B2, “Agrochemical composition and methods of preparing and using the same” (priority 2018, dated 2025)
